These results are taken from ChEMBL document CHEMBL1201862, “PubChem BioAssay data set” (2004).

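The compound was tested at five concentrations on cells cultured in 96-well plates, with a 48-hour exposure period. The concentration for 50% growth inhibition is given as GI50.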 Activity calls are given as the source filed them. Rule as the data show it: active = GI50 up to about 1.1 µM and inactive = higher.

Test systems include A498; A549; ACHN; EKVX; HOP-62; KM12; NCI-H23; NCI-H522; SF-268; SK-MEL-2; SK-OV-3; SNB-78; U-251; UACC-257; UO-31.
Common to all, as to assay: DTP human tumour cell line panel, 48 h

As to `Oc1cc(-c2ccccc2)nc2cc(Cl)ccc12`, the GI50 is 1.35 µM (inactive) in the test on A498; 0.515 µM (active) with A549; 0.914 µM (active) in the test with ACHN; > 100 µM (inactive) in the test with EKVX; 1.31 µM (inactive) with HOP-62; 0.695 µM (active) with KM12. Moreover, the GI50 was 1.1 µM (active) with NCI-H23; 0.112 µM (active) in the test with NCI-H522; 1.21 µM (inactive) in the test on SF-268; 0.445 µM (active) with SK-MEL-2; 0.493 µM (active) in the test on SK-OV-3; 3.34 µM (inactive) in the test on SNB-78. The values for the GI50 in the test on U-251, with UACC-257 and in the test on UO-31 were 0.509 µM (active), 14.1 µM (inactive) and 5.06 µM (inactive), respectively.
On to `O=C1CCC2(c3ccc(F)cc3)Nc3cc(Cl)ccc3N12` (stereo not given), for which the GI50 in the test on A498 is > 100 µM (inactive); with A549 it was 59.4 µM (inactive); in the test on ACHN, 54.6 µM (inactive); in the test with EKVX it was > 100 µM (inactive); in the test on HOP-62, > 100 µM (inactive); in the test with KM12, > 100 µM (inactive). In addition, the GI50 with NCI-H23 was 38.3 µM (inactive); in the test on NCI-H522, 48.6 µM (inactive); in the test on SF-268 it was > 100 µM (inactive); in the test on SK-MEL-2 it was > 100 µM (inactive); in the test with SK-OV-3, > 100 µM (inactive); in the test with SNB-78 it was > 100 µM (inactive). Also, the GI50 in the test on U-251 was > 100 µM (inactive); in the test on UACC-257 it was 90.4 µM (inactive); with UO-31, 94.2 µM (inactive).
For the molecule `CC(=O)NNc1ncc(C(=O)/C=C/c2ccccc2C)s1`, the GI50 in the test on A498, in the test on A549, with ACHN, in the test on EKVX, with HOP-62 and with KM12 was > 100 µM (inactive) throughout. The GI50 in the test with NCI-H23, in the test with NCI-H522, with SF-268, in the test with SK-MEL-2, in the test with SK-OV-3 and with SNB-78 was > 100 µM (inactive) each time. The GI50 in the test with U-251, in the test on UACC-257 and with UO-31 was > 100 µM (inactive) throughout.
Turning to `CO[C@H]1CC[C@]2(C)C3=CC[C@@]4(C)C(CC[C@@H]4C(C)CC[C@@H](C)C(C)C)C(=CCC2C1)O3` (stereo not given in full), the GI50 in the test with A498, in the test on A549, in the test with ACHN, in the test with EKVX, with HOP-62 and in the test on KM12 was > 25 µM (inactive) each time. For the same molecule, the GI50 is > 7.91 µM (inactive) in the test with NCI-H23; > 25 µM (inactive) in the test on NCI-H522; > 25 µM (inactive) in the test on SF-268; > 25 µM (inactive) in the test on SK-MEL-2; > 25 µM (inactive) with SK-OV-3; > 25 µM (inactive) in the test with SNB-78. The GI50 with U-251, in the test with UACC-257 and in the test on UO-31 was > 25 µM (inactive) in each case.

The GI50 is the concentration that inhibits growth by half.
